The record followed here is patent publication US20240246941A1, “SUBSTITUTED 4-(3-AMINOPROP-1-YL)AMINOQUINOLINE ANALOGS AS MODULATORS OF MELANOMA-ASSOCIATED ANTIGEN 11 UBIQUITIN LIGASE” (ST. JUDE CHILDREN'S RESEARCH HOSPITAL, INC., priority 2020, published 2024).

Some results are limits rather than exact numbers.

One experiment deals with interaction between GST-MAGEA11 MHD and FAM-PCF11_4 peptide (MAGE-A11:PCF11) (Homo sapiens (Human), UniProt P43364). The experiment can be described thus: TR-FRET dose response competition assay for disruption of MAGE-A11:PCF11 binding. The conditions noted are these: Dose response TR-FRET screening of nine scaffold groups against MAGE-A11:PCF11; read-out: consensus IC50. The essentials: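 Competition TR-FRET at room temperature in 50 mM Tris pH 7.5, 20 mM MgCl2, 0.1 mg/ml BSA, 1 mM DTT: final 5 nM GST-MAGEA11 MHD, 5 nM Tb-anti-GST, 200 nM FAM-PCF11_4, 90 min. Ratio 520/490 nm converted to % inhibition; IC50 from sigmoidal fit.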
interaction between GST-MAGEA11 MHD and FAM-PCF11_4 peptide (MAGE-A11:PCF11), sequence (P43364 218-429): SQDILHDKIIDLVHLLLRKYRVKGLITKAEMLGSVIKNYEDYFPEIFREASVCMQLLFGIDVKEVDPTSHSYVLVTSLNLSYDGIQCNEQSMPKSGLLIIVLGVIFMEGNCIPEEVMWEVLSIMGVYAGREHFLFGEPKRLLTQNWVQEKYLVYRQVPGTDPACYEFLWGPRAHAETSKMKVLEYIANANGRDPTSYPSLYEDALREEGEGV
For `CCCN1C(=O)c2ccccc2NC1c1ccc2c(c1)OCO2` (centres unmarked) [SJ000288667-1], the IC50 turned out to be 69.9 µM.
Same read-out and setting: the figure for `CC(=O)N(C)C1=C(Cl)C(=O)c2ccccc2C1=O` [SJ000290718-2] is 69.9 µM; for `CCCn1c(=O)[nH]c(=O)c2c1nc(-c1ccc(C(C)(C)C)cc1)n2CCN1CCOCC1` [SJ000377955-1] it is 69.9 µM.
Same read-out and setting: the figure for `C=CCN(CC=C)C(=O)Cn1cnc2cc(-c3ccc(OC)cc3)sc2c1=O` [SJ000431447-1] is 69.9 µM.
As for `O=C1c2ccccc2NC(c2ccc(F)c(F)c2)N1CCCN1CCOCC1` (centres unmarked) [SJ000803757-1], the IC50 was 58.4 µM.
With `Clc1cccc(Cl)c1Cc1ccc2c(NCCCNCc3cccc4c3OCO4)ccnc2c1` [SJ000311316-1], the IC50 was found to be 11 µM.
On the same count and under the same terms, the figure for `CCCCCn1c(-c2cccc(F)c2)nc2c1c(=O)[nH]c(=O)n2CCCC` [SJ000460165-1] is 69.9 µM.
Still for that read-out and setting: the figure for `CCn1c2ccccc2c2cc(CNCCc3ccc4c(c3)OCO4)ccc21` [SJ000112461-1] is 69.9 µM.
As for `COc1cccc(CNCCCNc2ccnc3cc(Cc4ccc(F)cc4Cl)ccc23)c1O` [SJ000311323-1], the IC50 was determined as 17.6 µM.
Same read-out and setting: next, `Fc1cccc(C(F)(F)F)c1CNCCCNc1ccnc2cc(C(F)(F)F)ccc12` [SJ000521059-1]: 69.9 µM; `Cn1c2ccccc2c2cc(C3Nc4ccccc4C(=O)N3Cc3ccccc3)ccc21` (centres unmarked) [SJ000288408-1]: 69.9 µM; `Cc1ccc(S(=O)(=O)c2nc(-c3ccc(F)cc3)oc2N2CCOCC2)cc1` [SJ000230854-1]: 11.7 µM.
Same read-out and setting: the figure for `COc1ccc(F)cc1CNCCCNc1ccnc2cc(-c3ccc4c(c3)OCO4)ccc12` [SJ000311293-1] is 29.9 µM; for `CSc1ccc(-c2nc3c(c(=O)[nH]c(=O)n3CC(C)C)n2CC(C)C)cc1` [SJ000394956-1] it is 69.9 µM; for `Cc1ccc(C2Nc3ccccc3C(=O)N2CCCN2CCOCC2)cc1` (centres unmarked) [SJ000803768-1] it is 65.9 µM.
Same read-out and setting: next, `CCCCn1c(=O)[nH]c(=O)c2c1nc(-c1ccc(F)cc1)n2CCOC` [SJ000421862-1]: 69.9 µM; `O=C1C(Cl)=C(N2CCOCC2)C(=O)c2ccccc21` [SJ000242799-1]: 69.9 µM.
As for `CCCCn1c(=O)[nH]c(=O)c2c1nc(-c1cccc(F)c1)n2CC` [SJ000414469-1], the IC50 was determined as 69.9 µM.
As for `CCn1c2ccccc2c2cc(CN3CCN(Cc4c[nH]c5ccccc45)CC3)ccc21` [SJ000111264-1], the IC50 was 69.9 µM.
Same read-out and setting: next, `COc1cccc(CNCCCNc2ccnc3cc(CCC(C)C)ccc23)c1O` [SJ000311247-1]: 69.9 µM.
Still for that read-out and setting: next, `Cc1ccc(S(=O)(=O)c2nc(-c3ccc(Cl)cc3)oc2N2CCOCC2)cc1` [SJ000230693-1]: 69.9 µM; `O=C1C(Cl)=C(NC(=O)C(F)(F)F)C(=O)c2ccccc21` [SJ000024928-1]: 9.87 µM.
Consider `COP(=O)(OC)c1nc(-c2ccccc2)oc1N1CCOCC1` [SJ000124835-1], for which the IC50 is 69.9 µM.
Still for that read-out and setting: next, `COc1cc(-c2nc3c(c(=O)[nH]c(=O)n3Cc3ccccc3)n2C)ccc1O` [SJ000430813-1]: 69.9 µM; `Cc1ccc(NC2=C(Cl)C(=O)c3ccccc3C2=O)cc1` [SJ000120750-1]: 69.9 µM; `O=C1OCC(c2ccc(F)cc2)=C1c1ccc([N+](=O)[O-])cc1` [SJ000368155-1]: 69.9 µM.
On the same count and under the same terms, the figure for `CN(C)C(=O)Cn1cnc2cc(-c3ccccc3)sc2c1=O` [SJ000425603-1] is 69.9 µM.
Regarding `COc1ccc(F)cc1CNCCCNc1ccnc2cc(Cc3cccc(C(F)(F)F)c3)ccc12` [SJ000311301-2], the IC50 was 22.1 µM.
Take `CCCCn1c(=O)[nH]c(=O)c2c1nc(-c1ccc(OCC(=O)O)cc1)n2CCC(C)C` [SJ000431347-1]: the IC50 came to 69.9 µM.
Same read-out and setting: next, `COc1ccc(CN2C(=O)c3ccccc3NC2c2ccc(C)cc2)cc1` (centres unmarked) [SJ000510741-1]: 69.9 µM.
The same measure, in the same setting: the figure for `COc1ccc(CN2C(=O)c3ccccc3NC2c2ccc(OC)cc2)cc1` (centres unmarked) [SJ000510744-1] is 69.9 µM; for `CCn1c(-c2ccc(O)c(OC)c2)nc2c1c(=O)[nH]c(=O)n2Cc1ccccc1` [SJ000430392-1] it is 69.9 µM.
Same read-out and setting: the figure for `CCCCn1c(=O)[nH]c(=O)c2c1nc(-c1cccc(F)c1)n2C` [SJ000415940-1] is 69.9 µM.
Turning to `O=C1C(Cl)=C(Nc2cccc(Br)c2)C(=O)c2ccccc21` [SJ000048680-1], the IC50 was 69.9 µM.
The same measure, in the same setting: next, `O=c1c2sc(-c3ccccc3)cc2nc(SCCO)n1CCN1CCOCC1` [SJ000452798-1]: 69.9 µM.
The same measure, in the same setting: the figure for `Cc1ccc(-c2nc3c(c(=O)[nH]c(=O)n3CC(C)C)n2CC(C)C)cc1[N+](=O)[O-]` [SJ000379015-1] is 69.9 µM; for `O=S(=O)(c1ccc(Cl)cc1)c1nc(-c2ccccc2Cl)oc1N1CCOCC1` [SJ000141574-1] it is 69.9 µM.
Same read-out and setting: next, `O=C1c2ccccc2NC(c2ccc(F)c(Br)c2)N1CCCN1CCOCC1` (centres unmarked) [SJ000803764-1]: 68 µM; `FC(F)(F)c1ccc2c(NCCCNCc3cccc4c3OCO4)ccnc2c1` [SJ000521048-1]: 69.9 µM.
With `CCCn1c(=O)c2nc(-c3ccc(OCC(=O)Nc4ccc(C#N)cc4)cc3)[nH]c2n(CCC)c1=O` [SJ000287997-2], the IC50 is 69.9 µM.
Still for that read-out and setting: the figure for `CCCCCCCCOc1ccc(NC2=C(N)C(=O)c3ccccc3C2=O)cc1` [SJ000562629-1] is 54.8 µM; for `CCCCn1c(=O)[nH]c(=O)c2c1nc(-c1ccc(OC)cc1)n2C` [SJ000425260-1] it is 69.9 µM.
On the same count and under the same terms, next, `CCCn1c(-c2cccc(C(F)(F)F)c2)nc2c1c(=O)[nH]c(=O)n2Cc1ccccc1` [SJ000382289-1]: 69.9 µM; `Cc1ccc(S(=O)(=O)c2nc(-c3ccccc3Cl)oc2N2CCOCC2)cc1` [SJ000230856-1]: 4.34 µM; `CCCCn1c(=O)[nH]c(=O)c2c1nc(-c1ccc(C)c([N+](=O)[O-])c1)n2CC` [SJ000378919-1]: 69.9 µM.
`CCCN1C(=O)c2ccccc2NC1c1ccc(OC)c(OC)c1` (centres unmarked) [SJ000026517-1]: the IC50 is 69.9 µM.
On the same count and under the same terms, next, `CC(=O)Cn1cnc2cc(-c3ccccc3)sc2c1=O` [SJ000448314-1]: 69.9 µM; `COc1cccc(CNCCCNc2ccnc3cc(Oc4ccccc4)ccc23)c1O` [SJ000311207-1]: 69.9 µM.
Same read-out and setting: the figure for `c1ccc(Oc2ccc3c(NCCCNCc4cccc5c4OCO5)ccnc3c2)cc1` [SJ000311208-1] is 30.1 µM.

Still in this experiment, the particulars now being: Table 5, dose response TR-FRET screening of 59 quinoline compounds against MAGE-A11:PCF11; read-out: TR-FRET IC50.
For the compound `FC(F)(F)Oc1cccc(CN(CCCCNc2ccnc3cc(Cl)ccc23)Cc2ccccc2)c1` [SJ000520457-1], the IC50 was more than 70 µM.
Still for that read-out and setting: next, `CCCN(CCCNc1ccnc2cc(C(F)(F)F)ccc12)CC1CC1` [SJ000361266-1]: more than 70 µM; `CCCN(CCCNc1ccnc2cc(C(F)(F)F)ccc12)Cc1ccc2[nH]ccc2c1` [SJ000575171-1]: 33.2 µM.
Still for that read-out and setting: next, `COc1ccc(Oc2ccc3c(NCCCNCc4ccco4)ccnc3c2)cc1` [SJ000311218-1]: more than 70 µM; `Clc1ccc2c(NCCCNCc3cc4ccccc4s3)ccnc2c1` [SJ000521032-1]: more than 70 µM.

Staying with this experiment, now noted: Table 8, representative compounds; read-out: TR-FRET IC50.
Take `Fc1ccc(Oc2ccc3c(NCCCNCc4cccc5c4OCO5)ccnc3c2)cc1` [SJ000311224]: the IC50 came out at 59.6 µM.
Same read-out and setting: next, `Cc1cc(C)cc(Cc2ccc3c(NCCCNCc4cccc5c4OCO5)ccnc3c2)c1` [SJ000311320]: 16.3 µM; `COc1ccc(F)cc1CNCCCNc1ccnc2cc(Oc3cccc(N(C)C)c3)ccc12` [SJ000311233]: 5.63 µM.
The same measure, in the same setting: next, `COc1cccc(CNCCCNc2ccnc3cc(Oc4ccc(Cl)cc4)ccc23)c1O` [SJ000311227]: 20.7 µM; `COC1CCCC(F)CC1CNCCCNc1ccnc2cc(CCc3ccccc3)ccc12` (centres unmarked) [SJ000311256]: 37.1 µM; `CCc1ccc(CNCCCNc2ccnc3cc(C(F)(F)F)ccc23)cc1` [SJ000521067]: 40.9 µM.
Still for that read-out and setting: next, `CCC(CC)c1ccc2c(NCCCNCc3cc(F)ccc3OC)ccnc2c1` [SJ000311269]: 43 µM.
With `Clc1ccc2c(NCCCNCc3ccc(-c4ccccc4)cc3)ccnc2c1` [SJ000523064], the IC50 turned out to be 34.9 µM.
`FC(F)(F)Oc1cccc(CNCCCNc2ccnc3cc(Cl)ccc23)c1` [SJ000521022]: the IC50 worked out at 69.9 µM.
On the same count and under the same terms, next, `COc1cccc(CNCCCNc2ccnc3cc(Cc4ccccc4)ccc23)c1O` [SJ000311307]: 69.9 µM.
The same measure, in the same setting: next, `COc1cccc(CNCCCNc2ccnc3cc(Cc4cccc(C(F)(F)F)c4)ccc23)c1O` [SJ000311299]: 27.5 µM; `COC1CCCC(CNCCCNc2ccnc3cc(Cc4ccc(C#N)cc4)ccc23)C1O` (centres unmarked) [SJ000311303]: 51 µM; `Clc1cccc(Cl)c1Cc1ccc2c(NCCCNCc3cccc4c3OCO4)ccnc2c1` [SJ000311316]: 11 µM.
Same read-out and setting: next, `Fc1ccc(Cc2ccc3c(NCCCNCc4cccc5c4OCO5)ccnc3c2)c(Cl)c1` [SJ000311324]: 20.6 µM; `CC(C)(C)c1ccc(-c2ccc3c(NCCCNCc4cccc5c4OCO5)ccnc3c2)cc1` [SJ000311288]: 6.87 µM.
Take `FC(F)(F)c1cccc(CNCCCNc2ccnc3cc(C(F)(F)F)ccc23)c1` [SJ000521047]: the IC50 was found to be 69.9 µM.
Still for that read-out and setting: next, `COc1cccc(CNCCCNc2ccnc3cc(-c4cc(C(F)(F)F)cc(C(F)(F)F)c4)ccc23)c1O` [SJ000311271]: 69.9 µM; `Cc1cc(C)c(CNCCCNc2ccnc3cc(Cl)ccc23)c(C)c1` [SJ000520911]: 68.1 µM.
The same measure, in the same setting: the figure for `COc1cccc(F)c1CNCCCNc1ccnc2cc(C(F)(F)F)ccc12` [SJ000521051] is 69.9 µM.
Still for that read-out and setting: the figure for `Fc1ccccc1CNCCCNc1ccnc2cc(Cl)ccc12` [SJ000523060] is 69.9 µM.
